Data published in ChEMBL document CHEMBL4184089 (Bioorg Med Chem Lett, 2018).

Legend:
[1] = molecular target: Sphingosine 1-phosphate receptor 1 (Homo sapiens, UniProt P21453); assay: Displacement of [32P]S1P from recombinant human S1PR1 expressed in CHOK1 cell membranes pretreated for 30 mins followed by [32P]S1P addition measured after 60 mins by scintillation counting method
[2] = molecular target: Sphingosine 1-phosphate receptor 3 (Homo sapiens, UniProt Q99500); assay: Displacement of [32P]S1P from recombinant human S1PR3 expressed in Chem1 cell membranes co-expressing Galpha15 pretreated for 30 mins followed by [32P]S1P addition measured after 60 mins by scintillation counting method
[3] = molecular target: Sphingosine 1-phosphate receptor 2 (Homo sapiens, UniProt O95136); assay: Displacement of [32P]S1P from recombinant human S1PR2 expressed in Chem1 cell membranes co-expressing Galpha15 pretreated for 30 mins followed by [32P]S1P addition measured after 60 mins by scintillation counting method
[4] = molecular target: Sphingosine 1-phosphate receptor 5 (Homo sapiens, UniProt Q9H228); assay: Displacement of [32P]S1P from recombinant human S1PR5 expressed in cell membranes pretreated for 30 mins followed by [32P]S1P addition measured after 60 mins by scintillation counting method
[5] = molecular target: T1, Sphingosine 1-phosphate receptor 4 (Homo sapiens, UniProt O95977); assay: Displacement of [32P]S1P from recombinant human S1PR4 expressed in cell membranes pretreated for 30 mins followed by [32P]S1P addition measured after 60 mins by scintillation counting method
T1 sequence (O95977 whole entry): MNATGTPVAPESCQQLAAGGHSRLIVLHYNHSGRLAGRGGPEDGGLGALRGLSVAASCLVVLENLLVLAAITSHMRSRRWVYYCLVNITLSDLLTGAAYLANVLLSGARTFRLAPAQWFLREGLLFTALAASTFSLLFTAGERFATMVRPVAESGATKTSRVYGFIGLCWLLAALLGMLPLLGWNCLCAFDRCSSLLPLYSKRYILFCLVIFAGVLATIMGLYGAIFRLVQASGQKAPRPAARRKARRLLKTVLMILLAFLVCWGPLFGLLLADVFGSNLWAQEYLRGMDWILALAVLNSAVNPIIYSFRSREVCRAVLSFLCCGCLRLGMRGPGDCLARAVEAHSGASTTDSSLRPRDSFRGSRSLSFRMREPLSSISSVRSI

Chain of Sphingosine 1-phosphate receptor 3 (Q99500 whole entry): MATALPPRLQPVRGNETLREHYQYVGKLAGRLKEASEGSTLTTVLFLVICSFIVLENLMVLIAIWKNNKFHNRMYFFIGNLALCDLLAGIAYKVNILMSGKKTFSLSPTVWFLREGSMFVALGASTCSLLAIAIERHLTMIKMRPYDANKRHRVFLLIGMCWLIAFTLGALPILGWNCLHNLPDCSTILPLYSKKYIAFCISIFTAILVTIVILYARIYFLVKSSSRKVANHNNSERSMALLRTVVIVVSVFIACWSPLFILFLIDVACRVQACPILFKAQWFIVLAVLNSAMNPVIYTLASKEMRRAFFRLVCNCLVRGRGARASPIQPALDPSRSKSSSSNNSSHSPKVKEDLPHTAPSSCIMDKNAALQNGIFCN
Chain of Sphingosine 1-phosphate receptor 2 (O95136 whole entry): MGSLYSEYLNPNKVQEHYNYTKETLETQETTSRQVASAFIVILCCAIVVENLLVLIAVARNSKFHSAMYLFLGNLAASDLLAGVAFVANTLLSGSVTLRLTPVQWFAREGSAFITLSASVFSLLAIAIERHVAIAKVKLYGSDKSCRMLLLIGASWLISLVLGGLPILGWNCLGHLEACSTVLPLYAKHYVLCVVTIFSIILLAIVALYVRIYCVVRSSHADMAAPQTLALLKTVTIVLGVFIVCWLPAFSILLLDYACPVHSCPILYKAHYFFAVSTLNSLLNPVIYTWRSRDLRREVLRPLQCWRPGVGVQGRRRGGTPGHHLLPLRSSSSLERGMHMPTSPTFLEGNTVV
Chain of Sphingosine 1-phosphate receptor 1 (P21453 whole entry): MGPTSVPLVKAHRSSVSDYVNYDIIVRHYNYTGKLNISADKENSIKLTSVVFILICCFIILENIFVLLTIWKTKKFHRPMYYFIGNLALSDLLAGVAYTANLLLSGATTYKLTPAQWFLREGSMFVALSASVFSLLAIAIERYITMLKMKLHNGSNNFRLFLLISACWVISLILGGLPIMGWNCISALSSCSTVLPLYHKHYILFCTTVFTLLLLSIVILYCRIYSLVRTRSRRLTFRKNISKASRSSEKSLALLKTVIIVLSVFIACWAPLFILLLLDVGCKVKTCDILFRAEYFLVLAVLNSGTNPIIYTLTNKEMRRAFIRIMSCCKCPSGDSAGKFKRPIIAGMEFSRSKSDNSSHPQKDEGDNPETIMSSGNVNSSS
Chain of Sphingosine 1-phosphate receptor 5 (Q9H228 whole entry): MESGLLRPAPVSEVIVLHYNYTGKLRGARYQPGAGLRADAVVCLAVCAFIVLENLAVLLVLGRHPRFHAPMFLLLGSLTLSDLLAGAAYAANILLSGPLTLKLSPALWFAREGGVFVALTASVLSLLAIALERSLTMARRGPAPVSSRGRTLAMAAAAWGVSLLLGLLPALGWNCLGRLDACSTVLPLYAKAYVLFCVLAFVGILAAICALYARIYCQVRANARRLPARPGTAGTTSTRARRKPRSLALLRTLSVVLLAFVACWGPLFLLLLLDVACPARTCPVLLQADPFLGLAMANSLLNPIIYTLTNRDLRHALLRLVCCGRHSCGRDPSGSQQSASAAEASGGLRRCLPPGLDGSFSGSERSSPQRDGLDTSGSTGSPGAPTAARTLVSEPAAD

Structure (SMILES) | IC50 [1] | IC50 [2] | IC50 [3] | IC50 [4] | IC50 [5]
Cc1nn(C)c2nc(NNC(=O)Nc3cc(Cl)nc(Cl)c3)cc(C(C)C)c12 | > 1000 nM | > 1000 nM |  |  | 
Cc1nn(C)c2nc(NNC(=O)Nc3cc(Cl)n4ccnc4c3)cc(C(C)C)c12 |  |  | > 1000 nM |  | 
COc1cc(NC(=O)NC(=O)c2cc(C(F)(F)F)c3c(C)nn(C)c3n2)cc(Cl)n1 |  |  | > 1000 nM |  | 
COc1cc(NC(=O)NC(=O)c2cc(C(C)C)c3c(n2)c(C)nn3C)cc(Cl)n1 |  |  | > 1000 nM |  | 
COc1cc(-c2nnc(-c3cc(C(C)C)c4c(C)nn(C)c4n3)[nH]2)cc(Cl)n1 |  |  | > 1000 nM |  | 
Cc1n[nH]c2nc(C(=O)NC(=O)Nc3cc(Cl)nc(Cl)c3)cc(C(F)(F)F)c12 |  |  | > 1000 nM |  | 
Cc1nn(C)c2nc(C(=O)NC(=O)Nc3cc(Cl)nc(Cl)c3)cc(C(F)(F)F)c12 |  |  | > 1000 nM |  | 
COc1cc(-c2nc(-c3cc(C(C)C)c4c(C)nn(C)c4n3)no2)cc(Cl)n1 |  |  | > 1000 nM |  | 

The next lines start with the values.

IC50 [1] | IC50 [2] | IC50 [3] | IC50 [4] | IC50 [5] | Structure (SMILES)
> 1000 nM | > 1000 nM | 29.1 nM | > 1000 nM | > 1000 nM | Cc1nn(C)c2nc(NNC(=O)Nc3cc(Cl)nc(OC(C)C)c3)cc(C(C)C)c12
 |  | > 1000 nM |  |  | COc1cc(NC(=O)NC(=O)c2cc(C(F)(F)F)c3c(C)n[nH]c3n2)cc(Cl)n1
> 1000 nM | > 1000 nM | 56.5 nM | > 1000 nM | > 1000 nM | Cc1nn(C)c2nc(NNC(=O)Nc3cc(Cl)nc(OCC4CC4)c3)cc(C(C)C)c12
 |  | > 1000 nM |  |  | Cc1nn(C)c2nc(NNC(=O)Nc3nc4c(Cl)nc(Cl)cc4[nH]3)cc(C(C)C)c12
